Reference: the supplement of paper PMC11061612

Key:
Test in all cases: Bliss excess, mean over the matrix (fraction); higher = more synergy
[1] = system: 8505C (Thyroid Gland Carcinoma)
Procedure, shortened: (§1)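 Bliss excess equals the observed combination effect minus the expected value EA + EB − EA·EB, where EA and EB are the effects of each agent alone. Combination Emax is the second-highest inhibition within the matrix. Inhibition was scaled from CellTiter-Glo 2.0 luminescence, with 0 set by vehicle wells and 1 by blank wells, after 72 hours of two-drug dosing of cells plated in 1536-well plates.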

[2] = system: COR-L279 (Small Cell Lung Carcinoma)
Procedure, shortened: as §1

[3] = system: CW-2 (Colorectal Carcinoma)
Procedure, shortened: as §1

[4] = system: DAN-G (Pancreatic Carcinoma)
Procedure, shortened: as §1

[5] = system: KMS-12-BM (Plasma Cell Myeloma)
Procedure, shortened: as §1

[6] = system: KYSE-270 (Esophageal Squamous Cell Carcinoma)
Procedure, shortened: as §1

M059J (Glioblastoma) = system: M059J (Glioblastoma)
Procedure, shortened: as §1

[7] = system: MOG-G-CCM (Low Grade Glioma)
Procedure, shortened: as §1

[8] = system: NCI-H520 (Squamous Cell Lung Carcinoma)
Procedure, shortened: as §1

[9] = system: NCI-H661 (Non-Small Cell Lung Carcinoma)
Procedure, shortened: as §1

[10] = system: NCI-H929 (Plasma Cell Myeloma)
Procedure, shortened: as §1

RD (Rhabdomyosarcoma) = system: RD (Rhabdomyosarcoma)
Procedure, shortened: as §1

[11] = system: RPMI-8226 (Plasma Cell Myeloma)
Procedure, shortened: as §1

SJSA-1 (Osteosarcoma) = system: SJSA-1 (Osteosarcoma)
Procedure, shortened: as §1

[12] = system: SK-GT-2 (Gastric Carcinoma)
Procedure, shortened: as §1

[13] = system: SK-GT-4 (Esophageal Adenocarcinoma)
Procedure, shortened: as §1

[14] = system: SNU-398 (Hepatocellular Carcinoma)
Procedure, shortened: as §1

[15] = system: ST486 (Burkitt's Lymphoma)
Procedure, shortened: as §1

[16] = system: VMRC-RCZ (Kidney Carcinoma)
Procedure, shortened: as §1

[17] = system: HCC1419 (Breast Carcinoma)
Procedure, shortened: as §1

Structure (SMILES)	Bliss excess [1]	Bliss excess [2]	Bliss excess [3]	Bliss excess [4]	Bliss excess [5]	Bliss excess [6]	Bliss excess (M059J (Glioblastoma))	Bliss excess [7]	Bliss excess [8]	Bliss excess [9]	Bliss excess [10]	Bliss excess (RD (Rhabdomyosarcoma))	Bliss excess [11]	Bliss excess (SJSA-1 (Osteosarcoma))	Bliss excess [12]	Bliss excess [13]	Bliss excess [14]	Bliss excess [15]	Bliss excess [16]	Bliss excess [17]
NC1(C(=O)N[C@@H](CCO)c2ccc(Cl)cc2)CCN(c2ncnc3[nH]ccc23)CC1 [Capivasertib] + CC(=O)c1c(C)c2cnc(Nc3ccc(N4CCNCC4)cn3)nc2n(C2CCCC2)c1=O [Palbociclib] (first compound max 10 µM, 7x7, partner max 10 µM)	-0.0475	-0.0443	0.0329	-0.0581	0.0977	-0.0135	-0.0489	-0.0389	0.0018	0.0204	-0.0066	-0.0333	0.01	-0.0445	0.0012	0.0029	-0.057	-0.0616	0.0321	
NC1(C(=O)N[C@@H](CCO)c2ccc(Cl)cc2)CCN(c2ncnc3[nH]ccc23)CC1 [Capivasertib] + CC(C)n1c(=O)n(C)c2cnc3cc(F)c(-c4ccc(OCCCN5CCCCC5)nc4)cc3c21 [AZD1390] (first compound max 10 µM, 7x7, partner max 0.3 µM)	-0.0376	-0.0055	-0.0469	-0.111	-0.0274	-0.0296	0.0135	-0.0302	-0.0559	-0.0692	-0.0187	-0.0146	-0.0096	-0.0843	-0.0342	-0.0586	-0.0579	-0.0363	-0.035	
NC1(C(=O)N[C@@H](CCO)c2ccc(Cl)cc2)CCN(c2ncnc3[nH]ccc23)CC1 [Capivasertib] + CCN(CCO)CCCOc1ccc2c(Nc3cc(CC(=O)Nc4cccc(F)c4)[nH]n3)ncnc2c1 [AZD2811] (first compound max 10 µM, 7x7, partner max 1 µM)	0.0134	-0.054	-0.0348	0.004	0.0502	-0.0289	-0.0328	-0.0373	-0.004	-0.0058	0.025	-0.0211	-0.0101	-0.0297	-0.0239	-0.016	0.0216	-0.0396	-0.046	
NC1(C(=O)N[C@@H](CCO)c2ccc(Cl)cc2)CCN(c2ncnc3[nH]ccc23)CC1 [Capivasertib] + COc1nnc2ccc(N3CCC(c4ccc(OCCN5CCN(C)C(=O)[C@H]5C)cc4)CC3)nn12 [AZD5153] (first compound max 10 µM, 7x7, partner max 1 µM)	0.0008	0.0735	0.0459	0.0578	0.0409	0.124	-0.0266	0.0151	0.0497	0.0687	-0.008	0.0116	0.0244	-0.0184	0.0448	-0.0204	0.0733	-0.0552	0.0171	
NC1(C(=O)N[C@@H](CCO)c2ccc(Cl)cc2)CCN(c2ncnc3[nH]ccc23)CC1 [Capivasertib] + C[C@@H]1COCCN1C2=NC(=NC(=C2)C3(CC3)[S@](=N)(=O)C)C4=C5C=CNC5=NC=C4 [AZD6738] (first compound max 10 µM, 7x7, partner max 10 µM)	-0.0138	0.0329	-0.0298	-0.0679	0.0398	-0.0847	-0.0366	-0.0929	-0.0357	-0.0645	-0.0009	-0.0453	-0.0344	-0.0414	-0.001	-0.0871	-0.0748	-0.0785	-0.0106	
NC1(C(=O)N[C@@H](CCO)c2ccc(Cl)cc2)CCN(c2ncnc3[nH]ccc23)CC1 [Capivasertib] + Cn1cnc2c(F)c(Nc3ccc(Br)cc3Cl)c(C(=O)NOCCO)cc21 [Selumetinib] (first compound max 10 µM, 7x7, partner max 10 µM)	0.0302	0.0214	-0.0035	-0.002	0.0441	0.0691	-0.0162	-0.0355	-0.015	-0.0074	0.0041	0.0942	0.0411	-0.0321	0.063	-0.0373	0.0287	0.0217	-0.0066	
Cc1nc(Nc2ncc(C(=O)Nc3c(C)cccc3Cl)s2)cc(N2CCN(CCO)CC2)n1 [Dasatinib] + CC(=O)Nc1cccc(-n2c(=O)n(C3CC3)c(=O)c3c(Nc4ccc(I)cc4F)n(C)c(=O)c(C)c32)c1 [Trametinib] (first compound max 2 µM, 7x7, partner max 1 µM)	0.0809	-0.0073	0.0129	0.138	-0.0046	-0.0142	-0.0946	-0.0782	-0.0488	-0.0528	-0.075	0.188	0.0121	0.0005	-0.0013	-0.0415	-0.0842	-0.0987	-0.0257	
COc1cc2ncnc(Nc3ccc(F)c(Cl)c3)c2cc1OCCCN1CCOCC1 [Gefitinib] + CC(C)n1c(=O)n(C)c2cnc3cc(F)c(-c4ccc(OCCCN5CCCCC5)nc4)cc3c21 [AZD1390] (first compound max 10 µM, 7x7, partner max 0.3 µM)	-0.0691	-0.0419	-0.031		-0.0267	-0.003	-0.0325	-0.0271	-0.0477	-0.097	-0.0092	-0.0699	-0.0547	-0.0562	-0.0382	-0.0846	-0.0627	-0.0874	-0.0621	-0.0216
CS(=O)(=O)CCNCc1ccc(-c2ccc3ncnc(Nc4ccc(OCc5cccc(F)c5)c(Cl)c4)c3c2)o1 [Lapatinib] + C[C@@H](Oc1cc(-c2cnn(C3CCNCC3)c2)cnc1N)c1c(Cl)ccc(F)c1Cl [Crizotinib] (first compound max 10 µM, 7x7, partner max 10 µM)	-0.0441	-0.06	-0.0146	0.0148	0.0256	-0.0054	-0.0733	-0.102	-0.0975	-0.0252	-0.062	-0.0253	-0.0127	-0.017	-0.0154	-0.0211	-0.0451	-0.0366	-0.0291	
CS(=O)(=O)CCNCc1ccc(-c2ccc3ncnc(Nc4ccc(OCc5cccc(F)c5)c(Cl)c4)c3c2)o1 [Lapatinib] + NC1(c2ccc(-c3nc4ccn5c(=O)[nH]nc5c4cc3-c3ccccc3)cc2)CCC1 [MK-2206] (first compound max 10 µM, 7x7, partner max 10 µM)		0.0229	-0.0434			0.0262	-0.0047	-0.0681	0.0011		-0.0278			-0.0402		0.0402		0.0266	0.0019	
CC(=O)c1c(C)c2cnc(Nc3ccc(N4CCNCC4)cn3)nc2n(C2CCCC2)c1=O [Palbociclib] + CC1(C)CCC(CN2CCN(c3ccc(C(=O)NS(=O)(=O)c4ccc(NCC5CCOCC5)c([N+](=O)[O-])c4)c(Oc4cnc5[nH]ccc5c4)c3)CC2)=C(c2ccc(Cl)cc2)C1 [Venetoclax] (first compound max 10 µM, 7x7, partner max 1 µM)	-0.0584	-0.002	0.0067	-0.0324	0.0637	-0.0349	-0.0511	-0.0493	-0.0209	-0.0593	-0.112	-0.0486	0.0461	-0.0295	-0.0342	-0.0437	0.0232	-0.0755	-0.0479	
CC(=O)c1c(C)c2cnc(Nc3ccc(N4CCNCC4)cn3)nc2n(C2CCCC2)c1=O [Palbociclib] + Cc1c2c(nn1C)CSCc1cc(n(C)n1)CSc1cc(c3ccccc3c1)OCCCc1c(C(=O)O)n(C)c3c-2c(Cl)ccc13 [AZD5991] (first compound max 10 µM, 7x7, partner max 1 µM)	-0.175	0.006	-0.0111	-0.0356	0.035	-0.0804	-0.0303	-0.0595	0.0024	-0.0443	0.0099	0.0077	-0.0191	-0.0426	-0.021	-0.0645	0.0128	-0.0457	-0.026	
CC(=O)c1c(C)c2cnc(Nc3ccc(N4CCNCC4)cn3)nc2n(C2CCCC2)c1=O [Palbociclib] + Cn1cnc2c(F)c(Nc3ccc(Br)cc3Cl)c(C(=O)NOCCO)cc21 [Selumetinib] (first compound max 10 µM, 7x7, partner max 10 µM)	-0.0377	-0.025	0.0099	-0.0077	0.0219	-0.0512	-0.0441	-0.0511	-0.054	-0.0533	0.0643	0.0455	0.142	-0.038	-0.0175	-0.0126	-0.0388	0.151	-0.0367	
CCc1c2c(nc3ccc(O)cc13)-c1cc3c(c(=O)n1C2)COC(=O)[C@]3(O)CC [SN-38] + O=C(c1cc(Cc2n[nH]c(=O)c3ccccc23)ccc1F)N1CCN(C(=O)C2CC2)CC1 [Olaparib] (first compound max 0.3 µM, 7x7, partner max 10 µM)	0.0498	0.0742	0.0293			0.0159	0.0784	0.099	0.0654	0.0696	0.0505			0.0423		0.0257	0.0008	0.0826	0.0072	
Cc1nc(-c2cn3c(n2)-c2ccc(-c4cnn(C(C)(C)C(N)=O)c4)cc2OCC3)n(C(C)C)n1 [Taselisib] + O=C(Nc1ccc2[nH]nc(-c3ccncc3)c2c1)[C@@H]1CCN(CC(=O)N2CCN(c3ccc(-c4ncccn4)cc3)CC2)C1 [SCH772984] (first compound max 10 µM, 7x7, partner max 5 µM)		0.0833	0.0458			0.0577	0.0027	-0.0727	0.0461		0.0344			0.0019		0.0428		0.0569	0.0004	
